Source: publication PMC11085448 (Molecules, 2024)
“And” between values parts separate entries of the source, which are not always exact repeats. Identical values can stand only once.

How the values were obtained:
[1] = molecular target: T1, human μ-opioid receptor (OPRM1) (Homo sapiens, UniProt P35372); assay: cell-based; settings: for EC50: MOR Agonist EC50 ± SEM; for Emax: read-out: MOR Agonist %Emax ± SEM
T1 construct: host or cells: cAMP Hunter CHO-K1 (Chinese hamster ovary) cells

[2] = molecular target: T2, human δ-opioid receptor (OPRD1) (Homo sapiens, UniProt P41143); assay: forskolin-induced cAMP accumulation assay, DOR agonist; settings: for Emax: CHO-K1, read-out: DOR Agonist %Emax ± SEM, CHO-K1 cells expressing human DOR; for EC50: DOR Agonist EC50 ± SEM, inhibition of forskolin-induced cAMP accumulation
T2 sequence (P41143 whole entry): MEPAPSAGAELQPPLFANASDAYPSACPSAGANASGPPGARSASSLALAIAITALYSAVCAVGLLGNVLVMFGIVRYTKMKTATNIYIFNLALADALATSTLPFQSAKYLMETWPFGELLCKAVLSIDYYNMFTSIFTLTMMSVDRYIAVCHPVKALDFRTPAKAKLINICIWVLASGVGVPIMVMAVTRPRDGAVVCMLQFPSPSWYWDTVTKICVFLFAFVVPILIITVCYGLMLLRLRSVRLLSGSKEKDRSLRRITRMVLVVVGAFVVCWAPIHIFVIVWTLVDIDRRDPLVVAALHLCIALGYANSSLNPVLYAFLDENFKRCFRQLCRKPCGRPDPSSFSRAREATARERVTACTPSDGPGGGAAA

[3] = molecular target: T3, human κ-opioid receptor (OPRK1) (Homo sapiens, UniProt P41145); assay: forskolin-induced cAMP accumulation assay, KOR agonist; settings: for EC50: KOR Agonist EC50 ± SEM, inhibition of forskolin-induced cAMP accumulation, CHO-K1 cells expressing human KOR; for Emax: CHO-K1, read-out: KOR Agonist %Emax ± SEM, CHO-K1 cells expressing human KOR, normalized to the forskolin control
T3 sequence (P41145 whole entry): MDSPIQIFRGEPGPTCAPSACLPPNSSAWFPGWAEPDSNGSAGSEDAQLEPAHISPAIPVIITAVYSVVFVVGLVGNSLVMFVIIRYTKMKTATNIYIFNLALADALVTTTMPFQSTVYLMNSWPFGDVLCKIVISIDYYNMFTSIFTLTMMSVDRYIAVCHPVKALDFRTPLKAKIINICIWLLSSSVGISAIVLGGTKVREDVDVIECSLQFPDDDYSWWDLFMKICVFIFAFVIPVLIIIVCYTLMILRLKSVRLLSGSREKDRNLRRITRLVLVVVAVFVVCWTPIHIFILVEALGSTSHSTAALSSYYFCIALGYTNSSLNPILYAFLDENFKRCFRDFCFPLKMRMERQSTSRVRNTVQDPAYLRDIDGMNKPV

[4] = molecular target: T3, human κ-opioid receptor (OPRK1); assay: forskolin-induced cAMP accumulation assay, KOR antagonist
[5] = molecular target: T2, human δ-opioid receptor (OPRD1); assay: forskolin-induced cAMP accumulation assay, DOR antagonist; assay type: cell-based; parameters: host or cells: cAMP Hunter CHO-K1 (Chinese hamster ovary) cells; settings: for DOR Antagonist %Imax ± SEM: CHO-K1 human DOR, versus EC50 of SNC80, Imax normalized to naltrexone
[6] = normalized to the forskolin control
[7] = CHO-K1 cells expressing human DOR

T1 sequence (P35372 whole entry): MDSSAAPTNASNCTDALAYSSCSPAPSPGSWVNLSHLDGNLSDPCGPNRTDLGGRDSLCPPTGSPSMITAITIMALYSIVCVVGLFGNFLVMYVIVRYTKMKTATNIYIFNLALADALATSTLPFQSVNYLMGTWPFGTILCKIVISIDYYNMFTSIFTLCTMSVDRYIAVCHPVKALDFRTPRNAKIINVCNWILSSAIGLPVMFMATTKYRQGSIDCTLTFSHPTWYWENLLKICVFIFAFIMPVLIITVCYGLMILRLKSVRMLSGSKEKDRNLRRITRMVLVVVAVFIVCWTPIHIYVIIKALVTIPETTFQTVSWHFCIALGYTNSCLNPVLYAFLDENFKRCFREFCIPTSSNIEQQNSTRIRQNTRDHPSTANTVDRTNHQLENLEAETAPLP

| Compound | EC50 [1] | Emax [1] | Emax [2, 6] | EC50 [2, 7] | EC50 [3] | IC50 [4] | IC50 [5] | Emax [3] | DOR Antagonist %Imax ± SEM [5] | MOR agonist potency relative to morphine (times more potent) [1] | DOR Agonist %Emax ± SEM ([2]; CHO-K1 cells expressing human DOR, normalized to the forskolin control) | KOR Antagonist %Imax ± SEM ([4]; CHO-K1 human KOR, versus EC90 of U50488H, Imax normalized to nor-BNI) |
| --- | --- | --- | --- | --- | --- | --- | --- | --- | --- | --- | --- | --- |
| N[C@H]1[C@H]2CCC[C@]1(c1cccc(O)c1)CCN2CCc1ccccc1 [1R,5R,9R-23, 3-((1R,5R,9R)-9-Amino-2-phenethyl-2-azabicyclo[3.3.1]nonan-5-yl)phenol] | 26 nM and 26.1 nM | 81% | 46.6% | 186 ± 12.5 nM | > 10000 nM | > 10000 nM | – | – | – | – | – | – |
| N[C@@H]1[C@H]2CCC[C@]1(c1cccc(O)c1)CCN2CCc1ccccc1 [1R,5R,9S-6, 3-((1R,5R,9S)-9-Amino-2-phenethyl-2-azabicyclo[3.3.1]nonan-5-yl)phenol] | 24 nM | 91% | 39.4% | 690 ± 188 nM | > 10000 nM | > 10000 nM | > 10000 nM | – | – | – | – | – |
| CN[C@@H]1[C@H]2CCC[C@]1(c1cccc(O)c1)CCN2CCc1ccccc1 [1R,5R,9S-10, 3-((1R,5R,9S)-9-(Methylamino)-2-phenethyl-2-azabicyclo[3.3.1]nonan-5-yl)phenol] | 83 nM and 82.8 nM | 28% | – | – | – | – | – | – | – | – | – | – |
| ON=C1[C@H]2CCC[C@]1(c1cccc(O)c1)CCN2CCc1ccccc1 [1R,5R-17, (1R,5R)-5-(3-Hydroxyphenyl)-2-phenethyl-2-azabicyclo[3.3.1]nonan-9-one oxime] | 22 nM and 22.1 nM | 99% | 32.2% | 157 ± 72 nM | 146 ± 19 nM | > 10000 nM | 1080 ± 464 nM | 21.2% | 66.5 ± 6.0% | – | – | – |
| N#CC=C1[C@H]2CCC[C@]1(c1cccc(O)c1)CCN2CCc1ccccc1 [1R,5R-33, 2-((1R,5R)-5-(3-hydroxyphenyl)-2-phenethyl-2-azabicyclo[3.3.1]nonan-9-ylidene)acetonitrile] | 1.8 nM | 100% | 69% | 8 nM and 8.1 nM | > 10000 nM | – | – | > 50% | – | about three times | 69.3 ± 6.0% | – |
| N#CC[C@H]1[C@H]2CCC[C@]1(c1cccc(O)c1)CCN2CCc1ccccc1 [1R,5S,9R-35, 2-((1R,5S,9R)-5-(3-hydroxyphenyl)-2-phenethyl-2-azabicyclo[3.3.1]nonan-9-yl)acetonitrile] | 0.85 nM | 99% | 35% | 4 nM and 4.3 nM | > 10000 nM | > 10000 nM | 94.5 ± 29.5 nM | – | 35.1 ± 2.6% | – | – | – |
| CNC[C@@H]1[C@H]2CCC[C@]1(c1cccc(O)c1)CCN2CCc1ccccc1 [1R,5S,9R-52, 3-((1R,5S,9R)-9-((Methylamino)methyl)-2-phenethyl-2-azabicyclo[3.3.1]nonan-5-yl)phenol] | 43 nM and 43.3 nM | 94% | 62% | 502 ± 125 nM | 210 ± 92 nM | – | – | 57% | – | – | – | – |
| N#CC[C@@H]1[C@H]2CCC[C@]1(c1cccc(O)c1)CCN2CCc1ccccc1 [1R,5S,9S-41, 2-((1R,5S,9S)-5-(3-Hydroxyphenyl)-2-phenethyl-2-azabicyclo[3.3.1]nonan-9-yl)acetonitrile] | > 10000 nM | – | – | – | – | – | – | – | – | – | – | – |
| CNC[C@H]1[C@H]2CCC[C@]1(c1cccc(O)c1)CCN2CCc1ccccc1 [1R,5S,9S-53, 3-((1R,5S,9S)-9-((Methylamino)methyl)-2-phenethyl-2-azabicyclo[3.3.1]nonan-5-yl)phenol] | 16 nM and 15.9 nM | 97% | 17.4% | 43.9 ± 22.2 nM | > 10000 nM | > 10000 nM | 1630 ± 882 nM | – | 109.3 ± 5.2% | – | – | – |
| N#CC[C@H]1[C@@H]2CCC[C@@]1(c1cccc(O)c1)CCN2CCc1ccccc1 [1S,5R,9R-38, 2-((1S,5R,9R)-5-(3-Hydroxyphenyl)-2-phenethyl-2-azabicyclo[3.3.1]nonan-9-yl)acetonitrile] | 2.5 nM | 89.6% | 46.8% | 55 ± 3.9 nM | > 10000 nM | 44 ± 4 nM | – | – | – | about twice | – | 97 ± 0.1% |
| CNC[C@@H]1[C@@H]2CCC[C@@]1(c1cccc(O)c1)CCN2CCc1ccccc1 [1S,5R,9R-47, 3-((1S,5R,9R)-9-((Methylamino)methyl)-2-phenethyl-2-azabicyclo[3.3.1]nonan-5-yl)phenol] | 3.7 nM and 3.66 nM | 102% | 84.7% | 416 ± 21.1 nM | 95.7 ± 17 nM | – | – | 93.4% | – | – | – | – |
| N#CC[C@@H]1[C@@H]2CCC[C@@]1(c1cccc(O)c1)CCN2CCc1ccccc1 [1S,5R,9S-34, 2-((1S,5R,9S)-5-(3-Hydroxyphenyl)-2-phenethyl-2-azabicyclo[3.3.1]nonan-9-yl)acetonitrile] | 27 nM and 27.3 nM | 101% | 61.5% | 575 ± 127 nM | > 10000 nM | > 10000 nM | – | – | – | – | – | – |
| N[C@H]1[C@@H]2CCC[C@@]1(c1cccc(O)c1)CCN2CCc1ccccc1 [1S,5S,9R-3, 3-((1S,5S,9R)-9-Amino-2-phenethyl-2-azabicyclo[3.3.1]nonan-5-yl)phenol] | > 10000 nM | – | – | – | > 10000 nM | – | – | – | – | – | – | – |
| CN[C@H]1[C@@H]2CCC[C@@]1(c1cccc(O)c1)CCN2CCc1ccccc1 [1S,5S,9R-8, 3-((1S,5S,9R)-9-(Methylamino)-2-phenethyl-2-azabicyclo[3.3.1]nonan-5-yl)phenol] | > 10000 nM | – | – | – | > 10000 nM | – | – | – | – | – | – | – |
| N[C@@H]1[C@@H]2CCC[C@@]1(c1cccc(O)c1)CCN2CCc1ccccc1 [1S,5S,9S-22, 3-((1S,5S,9S)-9-Amino-2-phenethyl-2-azabicyclo[3.3.1]nonan-5-yl)phenol] | 94 nM and 94.1 nM | 53% | – | – | – | – | – | – | – | – | – | – |
| ON=C1[C@@H]2CCC[C@@]1(c1cccc(O)c1)CCN2CCc1ccccc1 [1S,5S-15, (1S,5S)-5-(3-Hydroxyphenyl)-2-phenethyl-2-azabicyclo[3.3.1]nonan-9-one oxime] | 229 nM | 91% | – | – | > 10000 nM | – | – | – | – | – | – | – |
| N#CC=C1[C@@H]2CCC[C@@]1(c1cccc(O)c1)CCN2CCc1ccccc1 [1S,5S-28, 2-((1S,5S)-5-(3-Hydroxyphenyl)-2-phenethyl-2-azabicyclo[3.3.1]nonan-9-ylidene)acetonitrile] | 27 nM and 27.2 nM | 101% | 51.4% | 1520 ± 385 nM | > 10000 nM | > 10000 nM | – | – | – | – | – | – |
| Oc1ccc2c3c1O[C@H]1c4[nH]c5ccccc5c4C[C@@]4(O)[C@@H](C2)N(CC2CC2)CC[C@]314 [Naltrindole, reference compound] | – | – | – | – | – | – | – | – | 106.8 ± 4.8% | – | – | – |
